# Test results taken from patent US10030027B2, “Soluble guanylate cyclase stimulators” (MERCK SHARP & DOHME CORP., priority 2015, dated 2018).
# How the values were obtained:
# sGC α1/β1 heterodimer = sGC α1/β1 heterodimer (Homo sapiens (Human), UniProt Q02108+Q02153); experiment: Cell-based sGC functional assay (cyclic GMP assay for sGC activator: CASA assay); set-up: % Activation: concentration or dose not given beside the values; settings: CHO-K1/sGC cells; for Emax: CHO-K1, activity expressed as percentage of compound A (standard), read-out: % Activation; for EC50: inflection point, 4P fit, read-out: IP
# Excerpt: Cell-Based sGC Functional Assay (Cyclic GMP Assay for sGC Activator: CASA Assay)
# Soluble guanylate cyclase (sGC) is a heme-containing enzyme that converts GTP to secondary messenger cGMP. Increases in cGMP levels affect several physiological processes including vasorelaxation through multiple downstream pathways. […] Heme-dependent activators (HDAs) preferentially activate sGC containing a ferrous heme group. To determine the effect of sGC activators on enzyme activity, the CASA assay was developed to monitor the generation of cGMP in a cell line that stably expresses the heterodimeric sGC protein.
# A CHO-K1 cell line stably expressing the sGC α1/β1 heterodimer was generated using a standard transfection protocol. CHO-K1 cells were transfected with plasmids pIREShyghsGCα1 and pIRESneo-hsGCβ1 simultaneously using FUGENE reagent. Clones that stably express both subunits were selected with hygromycin and neomycin for ˜2 weeks. Clone #7 was chosen for the assay and was designated CHO-K1/sGC. CHO-K1/sGC cells were maintained in F-K12 medium containing 10% heat-inactivated Fetal Bovine Serum (FBS), 100 μg/mL penicillin/streptomycin, 0.5 mg/mL hygromycin and 0.25 mg/mL G418. The cells were then cryopreserved in LN2. On the day of the assay, the cells were thawed and resuspended in EBSS Assay Buffer (Sigma, E3024) supplemented with 5 mM MgCl2, 10 mM HEPES (4-(2-hydroxyethyl)piperazine-1-ethanesulfonic acid) and 0.05% BSA (bovine serum albumin) (EAB) and cell density was then adjusted to 2.25×10^5/mL with EAB. IBMX (3-isobutyl-1-methylxanthin, 0.5 mM) was added to inhibit degradation of cGMP. Compounds were diluted from DMSO stock solutions and added to the assay at a final DMSO concentration of 2.5%. Cells were pre-incubated in the presence and absence of 1 μM of Diethylenetriamine/nitric oxide adduct (DETA-NO; Sigma, 17018) for 30 min at 25° C. Compounds are subsequently added and incubated for 1 hr at 37° C. At the end of the incubation period, the reaction was terminated and the cells were lysed with the detection reagents from Cisbio Kits. The level of intracellular cGMP was determined using an HTRF-based assay kit (CisBio, 62GM2PEC), which detects the displacement of a fluorescence labeled cGMP from its specific antibody. The cGMP produced by test compounds was directly compared to the maximum cGMP production (this value was set to equal 100% activation.) of the published sGC-HDA compound A:
# (Example 1 in WO 2010/065275, published Jun. 10, 2010). The test compounds' activity were then expressed as a percentage of compound A, the standard in every experiment. This percent activation was calculated either in the presence or absence of DETA-NO which was then plotted. Inflection points (IP) and maximum fold induction was derived using Abase analysis software for 4P fit.
# [1] = target: human recombinant sGC enzyme (Homo sapiens (Human), UniProt Q02108+Q02153); experiment: Size Exclusion Chromatography (SEC) competition binding assay using [3H] Ex-77B as the radioligand; settings: [3H] Ex-77B radioligand, 24 hours at 37° C.
# Description: Binding Assay: The binding potencies of sGC compounds to the human recombinant sGC enzyme were determined in a Size Exclusion Chromatography (SEC) competition binding assay using [^3H] Ex-77B as the radioligand. [^3H] Ex-77B was prepared using a standardardized tritium exchange procedure. The parent (non-labeled) molecule was first iodinated then a Pd-catalyzed iodine to tritium exchange provided the labeled compound. […] Assays were conducted in 96-well plates in a total volume of 200 μL. […] Non-specific binding was defined by competition with 1 μM of Ex-77B. After the incubation period, the binding mixtures were loaded onto the gel-filtration plate (ThermoFischer Cat. No. 89808) pre-equilibrated with binding buffer and spun at 1000×g for 3 min at 4° C. on a Bench top centrifuge. The collected eluates in White Frame Clear Well Isoplates (Perkin Elmer Cat #6005040) received 100 μl of UltimaGold scintillation cocktail. The sealed plates were shaken vigorously and span, and counted after 6 hours with a Wallac Microbeta TriLux 1450 LSC & Luminescence Counter (Perkin Elmer). Data from competition experiments were analyzed to determine Ki values using one site fit Ki equation.
Emax (sGC α1/β1 heterodimer) [%],EC50 (sGC α1/β1 heterodimer) [nM],Ki [1] [nM],% Activation (sGC α1/β1 heterodimer; activity expressed as percentage of compound A (standard)) [%],Compound
148,141,0.022,–,"CC(C)(Cc1csc([C@]2(C)C(=O)Nc3nc(-c4nn(Cc5ccccc5F)c5cc(F)ccc45)nc(N)c32)n1)C(=O)O [Example 62A, (S)-3-(2-{4-amino-2-[6-fluoro-1-(2-fluorobenzyl)-1H-indazol-3-yl]-5-methyl-6-oxo-6,7-dihydro-5H-pyrrolo[2,3-d]pyrimidin-5-yl}-1,3-thiazol-4-yl)-2,2-dimethylpropanoic acid]"
107,93,0.07,–,"CC(C)(CCc1coc(C2(C)C(=O)Nc3nc(-c4nn(Cc5ccccc5F)c5cc(Cl)ccc45)nc(N)c32)n1)C(=O)O (stereo not drawn) [Example 167B, 4-(2-{4-amino-2-[6-chloro-1-(2-fluorobenzyl)-1H-indazol-3-yl]-5-methyl-6-oxo-6,7-dihydro-5H-pyrrolo[2,3-d]pyrimidin-5-yl}-1,3-oxazol-4-yl)-2,2-dimethyl-butanoic acid]"
97,547,0.785,–,"CC(C)(Cc1csc([C@]2(C)C(=O)Nc3nc(-c4nn(CCCC(F)(F)F)c5ncccc45)nc(N)c32)n1)C(=O)O [Example 87B, (S)-3-(2-{4-amino-5-methyl-6-oxo-2-[1-(4,4,4-trifluorobutyl)-1H-pyrazolo[3,4-b]pyridin-3-yl]-6,7-dihydro-5H-pyrrolo[2,3-d]pyrimidin-5-yl}-1,3-thiazol-4-yl)-2,2-dimethylpropanoic acid]"
101,302,0.075,–,"C[C@@]1(c2ccc(CCC(=O)O)cc2)C(=O)Nc2nc(-c3nn(Cc4c(F)cccc4F)c4cc(Cl)ccc34)nc(N)c21 (single isomer, unassigned) [Example 64B]"
–,529,0.087,127.9,"CC1CCC(Cn2nc(-c3nc(N)c4c(n3)NC(=O)C4(C)c3nc(CC(C)(C)C(=O)O)co3)c3ccccc32)CC1 (single isomer, unassigned) [Example 231AB, 3-{2-[4-amino-5-methyl-2-{1-[4-methylcyclo-hexylmethyl]-1H-indazol-3-yl}-6-oxo-6,7-dihydro-5H-pyrrolo[2,3-d]pyrimidin-5-yl]-1,3-oxazol-4-yl}-2,2-dimethyl-propanoic acid]"
78,1130,0.361,–,"C[C@@]1(c2ccc(CCC(=O)O)cc2)C(=O)Nc2nc(-c3nn(Cc4ccccc4F)c4cc(Cl)c(O)cc34)nc(N)c21 [Example 110B, (S)-3-(4-{4-Amino-2-[6-chloro-1-(2-fluorobenzyl)-5-hydroxy-1H-indazol-3-yl]-5-methyl-6-oxo-6,7-dihydro-5H-pyrrolo[2,3-d]pyrimidin-5-yl}phenyl)propanoic acid]"
111,88,0.076,–,"CC(C)(Cc1csc([C@]2(C)C(=O)Nc3nc(-c4nn(Cc5c(F)cccc5F)c5cc(Cl)ccc45)nc(N)c32)n1)C(=O)O [Example 183A, (S)-3-(2-{4-amino-2-[6-chloro-1-(2,6-difluorobenzyl)-1H-indazol-3-yl]-5-methyl-6-oxo-6,7-dihydro-5H-pyrrolo[2,3-d]pyrimidin-5-yl}-1,3-thiazol-4-yl)-2,2-dimethyl-propanoic acid]"
138,56,0.336,–,"CC1CCC(Cn2nc(-c3nc(N)c4c(n3)NC(=O)[C@@]4(C)c3nc(CC(C)(C)C(=O)O)cs3)c3cccnc32)CC1 (single isomer, unassigned) [Example 125AB]"
120,1060,0.125,–,"CC(C)(Cc1ccc(C2(C)C(=O)Nc3nc(-c4nn(Cc5ccccc5F)c5cc(Cl)ccc45)nc(N)c32)nc1)C(=O)O (stereo not drawn) [Example 131B, 3-(6-{4-amino-2-[6-chloro-1-(2-fluorobenzyl)-1H-indazol-3-yl]-5-methyl-6-oxo-6,7-dihydro-5H-pyrrolo[2,3-d]pyrimidin-5-yl}pyridin-3-yl)-2,2-dimethylpropanoic acid]"
106,116,0.048,–,"CC(C)(Cc1coc(C2(C)C(=O)Nc3nc(-c4nn(Cc5ccccc5F)c5ccccc45)nc(N)c32)n1)c1nn[nH]n1 (stereo not drawn) [Example 248B, 4-Amino-2-[1-(2-fluorobenzyl)-1H-indazol-3-yl]-5-methyl-5-{4-[2-methyl-2-(2H-tetrazol-5-yl)propyl]oxazol-2-yl}-5,7-dihydro-6H-pyrrolo[2,3-d]pyrimidin-6-one]"
106,125,0.162,–,"CC(C)(CCc1coc(C2(C)C(=O)Nc3nc(-c4nn(Cc5cccc(F)c5)c5cc(F)ccc45)nc(N)c32)n1)C(=O)O (stereo not drawn) [Example 197B, 4-(2-{4-amino-2-[6-fluoro-1-(3-fluorobenzyl)-1H-indazol-3-yl]-5-methyl-6-oxo-6,7-dihydro-5H-pyrrolo[2,3-d]pyrimidin-5-yl}-1,3-oxazol-4-yl)-2,2-dimethyl-butanoic acid]"
115,384,0.154,–,"Cc1ccc(Cn2nc(-c3nc(N)c4c(n3)NC(=O)[C@@]4(C)c3ccc(CCC(=O)O)cc3)c3ccc(Cl)cc32)cc1 [Example 67B, (S)-3-(4-{4-amino-2-[6-chloro-1-(4-methylbenzyl)-1H-indazol-3-yl]-5-methyl-6-oxo-6,7-dihydro-5H-pyrrolo[2,3-d]pyrimidin-5-yl}phenyl)propanoic acid]"
96,762,0.484,–,"CCCCn1nc(-c2nc(N)c3c(n2)NC(=O)C3(C)c2ccc(CC(C)(C)C(=O)O)cc2)c2ccc(Cl)cc21 (stereo not drawn) [Example 37B, 3-{4-[4-amino-2-(1-butyl-6-chloro-1H-indazol-3-yl)-5-methyl-6-oxo-6,7-dihydro-5H-pyrrolo[2,3-d]pyrimidin-5-yl]phenyl}-2,2-dimethylpropanoic acid]"
83.3,205,0.12,–,"Cc1cccc(Cn2nc(-c3nc(N)c4c(n3)NC(=O)C4(C)c3nc(CC(C)(C)C(=O)O)co3)c3ccc(Cl)cc32)c1 (stereo not drawn) [Example 186A, 3-(2-{4-amino-2-[6-chloro-1-(3-methylbenzyl)-1H-indazol-3-yl]-5-methyl-6-oxo-6,7-dihydro-5H-pyrrolo[2,3-d]pyrimidin-5-yl}-1,3-oxazol-4-yl)-2,2-dimethyl-propanoic acid]"
116,51,0.049,–,"CC(C)(Cc1coc(C2(C)C(=O)Nc3nc(-c4nn(Cc5c(F)ccc(F)c5F)c5cc(Cl)ccc45)nc(N)c32)n1)C(=O)O (stereo not drawn) [Example 189A, 3-(2-{4-amino-2-[6-chloro-1-(2,3,6-trifluorobenzyl)-1H-indazol-3-yl]-5-methyl-6-oxo-6,7-dihydro-5H-pyrrolo[2,3-d]pyrimidin-5-yl}-1,3-oxazol-4-yl)-2,2-dimethyl-propanoic acid]"
95,64,0.079,–,"CC(C)(Cc1coc(C2(C)C(=O)Nc3nc(-c4nn(CC5CCCCC5)c5ccccc45)nc(N)c32)n1)C(=O)O (stereo not drawn) [Example 228A, 3-(2-{4-amino-2-[1-(cyclohexyl-methyl)-1H-indazol-3-yl]-5-methyl-6-oxo-6,7-dihydro-5H-pyrrolo[2,3-d]pyrimidin-5-yl}-1,3-oxazol-4-yl)-2,2-dimethyl-propanoic acid]"
